Source: publication PMC7501296, “Rapid and direct control of target protein levels with VHL-recruiting dTAG molecules” (Nature Communications, 2020)
“And” between values parts separate entries of the source, which are not always exact repeats. Equal values may be shown once.

Test system: EWS502 FKBP12^F36V-EWS/FLI; EWS/FLI^−/− cells
Assay: Quantitative MS proteomics, EWS502 FKBP12F36V-EWS/FLI; EWS/FLI-/- cells
Type: cell-based, Homo sapiens
Conditions: for TMT intensity per TMT channel: biological replicates
Experimental: Cell pellets from PATU-8902 and EWS502 cells were lysed using 8 M urea, 200 mM 4-(2-hydroxyethyl)-1-piperazinepropanesulfonic acid (EPPS) at pH 8.5 with protease inhibitors. Samples were further homogenized and DNA was sheered via sonication using a probe sonicator (20 × 0.5 s pulses; level 3). Total protein was determined using a BCA assay and stored at −80 °C until future use. A total of 100 µg of protein was aliquoted for each condition and TMT channel for further downstream processing. Protein extracts were reduced using 10 mM dithiothreitol (DTT) for 30 min at room temperature. Next, samples were alkylated with 20 mM iodoacetamide for 45 min in the dark at room temperature. To facilitate the removal of incompatible reagents, proteins were precipitated using chloroform methanol. Briefly, to 100 µL of each sample, 400 µL of methanol was added, followed by 100 µL of chloroform with thorough vortexing. Next, 300 µL of HPLC grade water was added and samples were vortexed thoroughly. Each sample was centrifuged at 14,000 × g for 5 min at room temperature. The upper aqueous layer was removed and the protein pellet was washed twice with methanol and centrifuged at 14,000 × g for 5 min at room temperature. Protein pellets were resolubilized in 200 mM EPPS buffer and digested overnight with Lys-C (1:100, enzyme:protein ratio) at room temperature. The next day, trypsin (1:100 ratio) was added and incubated at 37 °C for an additional 6 h in a ThermoMixer set to 1000 RPM.
To each digested sample, 30% anhydrous acetonitrile was added and 100 µg of peptides were labeled using 200 µg of TMT reagent (TMT1-TMT11). Following labeling, a 5% hydroxylamine solution was used to quench excess TMT reagent. To equalize protein loading, a ratio check was performed by pooling 2 µg of each TMT-labeled sample. Samples were pooled and desalted using in-house packed C18 StageTips and analyzed by LC-MS/MS. Normalization factors were calculated from this label check, samples were mixed 1:1 across all TMT channels and desalted using a 100 mg Sep-Pak solid phase extraction cartridge. Eluted pooled peptides were further fractionated with basic-pH reverse-phase (bRP) HPLC using an Agilent 300 extend C18 column and collected into a 96 deep-well plate. Samples were consolidated into 24 fractions, and 12 nonadjacent fraction were desalted using StageTips prior to analyses using LC-MS/MS[35]–[37].
All mass spectrometry data was acquired using an Orbitrap Fusion mass spectrometer in-line with a Proxeon NanoLC-1000 UHPLC system. Peptides were separated using an in-house 100 µm capillary column packed with 40 cm of Accucore 150 resin (2.6 µm, 150 Å) (Thermo Fisher Scientific) using a 180 min LC gradient per fraction. Eluted peptides were acquired using synchronous precursor selection (SPS-MS3) method for TMT quantification. Briefly, MS1 spectra were acquired at 120 K resolving power with a maximum of 50 ms in the Orbitrap. MS2 spectra were acquired by selecting the top ten most abundant features via collisional induced dissociation (CID) in the ion trap using an automatic gain control (AGC) of 15 K, quadrupole isolation width of 0.7 m/z and a maximum ion time of 100 ms. For MS3 acquisition, a synchronous precursor selection of ten fragment ions was acquired with an AGC of 150 K for 150 ms and a normalized collision energy of 55.
All acquired raw data were converted to mzXML using Raw File Reader (v3.0.77). Spectra were processed using Comet (2019.01.5)[39]–[41], search results were filtered using the LDA function MASS Package in R, and data were processed using an in-house informatics pipeline[42]–[44]. Custom code was not developed in this study. Briefly, peptide spectral libraries were first filtered to a peptide false discovery rate (FDR) of less than 1% using linear discriminant analysis employing a target decoy strategy. […]

CC[C@H](C(=O)N1CCCC[C@H]1C(=O)O[C@H](CCc1ccc(OC)c(OC)c1)c1ccccc1OCC(=O)NCCCCCCC(=O)N[C@H](C(=O)N1C[C@H](O)C[C@H]1C(=O)N[C@@H](C)c1ccc(-c2scnc2C)cc1)C(C)(C)C)c1cc(OC)c(OC)c(OC)c1 [dTAG^V-1]
Downstream EWS/FLI targets such as NKX2-2 (1 μM): decrease
FKBP12F36V-EWS/FLI abundance, proteomics (1 μM, 6 h): pronounced loss
TMT intensity per TMT channel (protein ALX1, 2 h): 329.39 and 330.899 and 363.825
TMT intensity per TMT channel (protein ALX1, 6 h): 447.307 and 474.897 and 456.686
TMT intensity per TMT channel (protein ALX1, 24 h): 404.298 and 454.379 and 455.33
TMT intensity per TMT channel (protein ALX4, 2 h): 469.052 and 457.885 and 499.883
TMT intensity per TMT channel (protein ALX4, 6 h): 458.233 and 484.524 and 491.274
TMT intensity per TMT channel (protein ALX4, 24 h): 439.297 and 450.367 and 443.433
Fold change > 2 (protein HMGCR, 1 μM, 6 h): + (Fold change in which '+' refers to fold change > 2.)
log2 (Fold change) compared to DMSO (protein HMGCR, 1 μM, 6 h): 1.415
TMT intensity per TMT channel (protein HOXD13, 2 h): 710.117 and 733.089 and 700.291
TMT intensity per TMT channel (protein HOXD13, 6 h): 834.508 and 881.589 and 912.211
TMT intensity per TMT channel (protein HOXD13, 24 h): 931.777 and 1032.27 and 996.28
log2 (Fold change) compared to DMSO (protein NOB1, 1 μM, 6 h): 0.3965
TMT intensity per TMT channel (protein PHOX2B, 2 h): 138.138 and 127.877 and 140.273
TMT intensity per TMT channel (protein PHOX2B, 6 h): 146.64 and 175.628 and 155.142
TMT intensity per TMT channel (protein PHOX2B, 24 h): 163.818 and 130.026 and 156.319
log2 (Fold change) compared to DMSO (protein PRCP, 1 μM, 6 h): -0.5172
TMT intensity per TMT channel (protein SLC12A2, 2 h): 2102.8 and 2152.89 and 2069.05
TMT intensity per TMT channel (protein SLC12A2, 6 h): 2768.92 and 2608.81 and 2791.59
TMT intensity per TMT channel (protein SLC12A2, 24 h): 2883.76 and 2924.13 and 2976.61
log2 (Fold change) compared to DMSO (protein SQLE, 1 μM, 6 h): 0.8919
log2 (Fold change) compared to DMSO (protein TMEM126A, 1 μM, 6 h): -0.3183
